Test results taken from PubChem BioAssay AID248 (DTP/NCI, 2004).
Values joined by “and” are separate entries in the source; they are usually repeats but may differ in a detail not shown here. Equal values may be shown once. Toxic doses and inconclusive results are not listed. Cut-off read from the data, not from the text of the source: active = T/C of 150% or more; inactive = T/C below 125%.

System: L1210 leukemia ip in BDF1 mice, survival T/C
Assay: NCI In Vivo Anticancer Drug Screen. Data for tumor model L1210 Leukemia (intraperitoneal) in B6D2F1 (BDF1) mice
Details: endpoint: mean survival time, higher = longer survival
Summary of the method: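 Mice bearing the transplanted tumor received compound or vehicle. Survival of the treated group was divided by that of the vehicle-treated control group to give the ratio.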

[1] = dose: 50.0 mg/kg/injection, schedule: Q01DX001 (ip), vehicle: saline
[2] = dose: 100.0 mg/kg/injection, schedule: Q01DX001 (ip), vehicle: saline
[3] = dose: 300.0 mg/kg/injection, schedule: Q01DX001 (ip), vehicle: saline
[4] = dose: 100.0 mg/kg/injection, schedule: Q01DX009 (ip), vehicle: Klucel (hydroxypropylcellulose) (HPC)
[5] = dose: 200.0 mg/kg/injection, schedule: Q01DX009 (ip), vehicle: Klucel (hydroxypropylcellulose) (HPC)
[6] = dose: 100.0 mg/kg/injection, schedule: Q04DX003 (ip), vehicle: saline with Tween-80
[7] = dose: 100.0 mg/kg/injection, schedule: Q04DX002 (ip), vehicle: Klucel (hydroxypropylcellulose) (HPC)
[8] = dose: 200.0 mg/kg/injection, schedule: Q04DX002 (ip), vehicle: Klucel (hydroxypropylcellulose) (HPC)
[9] = dose: 400.0 mg/kg/injection, schedule: Q04DX002 (ip), vehicle: Klucel (hydroxypropylcellulose) (HPC)
[10] = dose: 200.0 mg/kg/injection, schedule: Q01DX001 (ip), vehicle: saline

Measured: T/C

CCCCNC(C)C(=O)c1ccccc1 (stereo not drawn)
inactive: dose: 12.5 mg/kg/injection, schedule: Q04DX003 (ip), vehicle: saline 100 % of control | dose: 25.0 mg/kg/injection, schedule: Q01DX009 (ip), vehicle: saline 101 % of control | dose: 25.0 mg/kg/injection, schedule: Q04DX003 (ip), vehicle: saline 90 % of control | dose: 50.0 mg/kg/injection, schedule: Q01DX009 (ip), vehicle: saline 101 % of control | dose: 50.0 mg/kg/injection, schedule: Q04DX003 (ip), vehicle: saline 100 % of control | dose: 100.0 mg/kg/injection, schedule: Q04DX003 (ip), vehicle: saline 94 % of control

O=S(=O)(CCl)OCCCCOS(=O)(=O)CCl
inactive: dose: 31.5 mg/kg/injection, schedule: Q01DX009 (ip), vehicle: saline 108 % of control and 109 % of control | dose: 31.5 mg/kg/injection, schedule: Q01DX015 (ip), vehicle: saline 112 % of control | [1] 100 % of control | dose: 54.0 mg/kg/injection, schedule: Q01DX009 (ip), vehicle: saline 120 % of control and 124 % of control | dose: 90.0 mg/kg/injection, schedule: Q01DX009 (ip), vehicle: saline 124 % of control | dose: 90.0 mg/kg/injection, schedule: Q01DX015 (ip), vehicle: saline 124 % of control | [2] 111 % of control | dose: 100.0 mg/kg/injection, schedule: Q01DX015 (ip), vehicle: saline 108 % of control | dose: 133.0 mg/kg/injection, schedule: Q01DX001 (ip), vehicle: saline 104 % of control and 107 % of control and 121 % of control | dose: 150.0 mg/kg/injection, schedule: Q01DX009 (ip), vehicle: saline 104 % of control | dose: 200.0 mg/kg/injection, schedule: Q01DX015 (ip), vehicle: saline 97 % of control | [3] 104 % of control and 121 % of control

Nc1nnn(CCO)n1
inactive: dose: 100.0 mg/kg/injection, schedule: Q04DX003 (ip), vehicle: saline sonified 105 % of control | dose: 200.0 mg/kg/injection, schedule: Q04DX003 (ip), vehicle: saline sonified 102 % of control | dose: 400.0 mg/kg/injection, schedule: Q04DX003 (ip), vehicle: saline sonified 96 % of control

FC1(F)SC2c3ccccc3CC2C1(F)F (stereo not drawn)
inactive: [4] 97 % of control | [5] 101 % of control | dose: 400.0 mg/kg/injection, schedule: Q01DX009 (ip), vehicle: Klucel (hydroxypropylcellulose) (HPC) 95 % of control

CS(=O)(=O)c1ccc(Sc2ccc(S(C)(=O)=O)cc2)cc1
inactive: dose: 12.5 mg/kg/injection, schedule: Q01DX009 (ip), vehicle: saline with Tween-80 105 % of control | dose: 25.0 mg/kg/injection, schedule: Q01DX009 (ip), vehicle: saline with Tween-80 96 % of control | dose: 25.0 mg/kg/injection, schedule: Q04DX003 (ip), vehicle: saline with Tween-80 98 % of control | dose: 50.0 mg/kg/injection, schedule: Q01DX009 (ip), vehicle: saline with Tween-80 92 % of control | dose: 50.0 mg/kg/injection, schedule: Q04DX003 (ip), vehicle: saline with Tween-80 94 % of control | [6] 93 % of control

O=C1NC(=S)S/C1=C\c1ccc([N+](=O)[O-])s1
inactive: [7] 90 % of control | [8] 93 % of control

Cc1ccc2c(ccc3cc(C)ccc32)c1
inactive: [7] 122 % of control | [8] 101 % of control | [9] 97 % of control

O=C1c2cc(Br)ccc2NC1(c1c[nH]c2ccccc12)c1c[nH]c2ccccc12
inactive: [1] 102 % of control | [2] 100 % of control | [10] 96 % of control | dose: 400.0 mg/kg/injection, schedule: Q01DX001 (ip), vehicle: saline 93 % of control

CCOC(=O)C1C2C=CC(N3C(=O)c4ccccc4C3=O)CC21 (stereo not drawn)
inactive: dose: 100.0 mg/kg/injection, schedule: Q01DX009 (ip), vehicle: gum acacia 92 % of control | dose: 200.0 mg/kg/injection, schedule: Q01DX009 (ip), vehicle: gum acacia 91 % of control | dose: 400.0 mg/kg/injection, schedule: Q01DX009 (ip), vehicle: gum acacia 97 % of control

CCOC(=O)c1ccc(Nc2sc(C(=O)c3cccc([N+](=O)[O-])c3)c(N)c2C#N)cc1
inactive: [7] 101 % of control | [8] 92 % of control | [9] 92 % of control

Nc1ccc(SS(N)(=O)=O)cc1
inactive: [2] 98 % of control | [10] 98 % of control

O=S(=O)(Nc1ccc2ccccc2c1)c1cccc2ccccc12
inactive: dose: 100.0 mg/kg/injection, schedule: Q04DX003 (ip), vehicle: Klucel (hydroxypropylcellulose) (HPC) 101 % of control | dose: 200.0 mg/kg/injection, schedule: Q04DX003 (ip), vehicle: Klucel (hydroxypropylcellulose) (HPC) 93 % of control | dose: 400.0 mg/kg/injection, schedule: Q04DX003 (ip), vehicle: Klucel (hydroxypropylcellulose) (HPC) 101 % of control

O=C(O)c1ccc(Nc2ccccc2)cc1
inactive: [6] 103 % of control | dose: 200.0 mg/kg/injection, schedule: Q04DX003 (ip), vehicle: saline with Tween-80 90 % of control | dose: 400.0 mg/kg/injection, schedule: Q04DX003 (ip), vehicle: saline with Tween-80 90 % of control

Nc1ncc(CNc2ccc(C(=O)O)cc2)c(N)n1
inactive: [2] 103 % of control | [10] 103 % of control

O=c1[nH]nc(-c2ccc(Cl)c(Cl)c2)s1
inactive: dose: 75.0 mg/kg/injection, schedule: Q01DX001 (ip), vehicle: saline 95 % of control | dose: 75.0 mg/kg/injection, schedule: Q04DX003 (ip), vehicle: saline 95 % of control | dose: 150.0 mg/kg/injection, schedule: Q01DX001 (ip), vehicle: saline 92 % of control | dose: 150.0 mg/kg/injection, schedule: Q04DX003 (ip), vehicle: saline 95 % of control | [3] 92 % of control | dose: 300.0 mg/kg/injection, schedule: Q04DX003 (ip), vehicle: saline 96 % of control

Cc1c(CC#N)cc(C)c2c3c([nH]c12)CCCC3
inactive: dose: 50.0 mg/kg/injection, schedule: Q01DX009 (ip), vehicle: Klucel (hydroxypropylcellulose) (HPC) 95 % of control | [4] 98 % of control | [5] 91 % of control

Clc1ccc2nc(/C=C/c3ccccc3)ccc2c1
inactive: dose: 100.0 mg/kg/injection, schedule: Q01DX001 (ip), vehicle: other 95 % of control | dose: 200.0 mg/kg/injection, schedule: Q01DX001 (ip), vehicle: other 104 % of control | dose: 400.0 mg/kg/injection, schedule: Q01DX001 (ip), vehicle: other 98 % of control

CNc1ccc(/C=C2\C=Cc3ccccc32)cc1I
inactive: dose: 100.0 mg/kg/injection, schedule: Q01DX001 (ip), vehicle: carboxymethylcellulose (CMC) 95 % of control | dose: 200.0 mg/kg/injection, schedule: Q01DX001 (ip), vehicle: carboxymethylcellulose (CMC) 95 % of control | dose: 400.0 mg/kg/injection, schedule: Q01DX001 (ip), vehicle: carboxymethylcellulose (CMC) 101 % of control

CC(C)(COS(C)(=O)=O)COS(C)(=O)=O
inactive: dose: 50.0 mg/kg/injection, schedule: Q01DX001 (ip), vehicle: Klucel (hydroxypropylcellulose) (HPC) 95 % of control | dose: 100.0 mg/kg/injection, schedule: Q01DX001 (ip), vehicle: Klucel (hydroxypropylcellulose) (HPC) 93 % of control | dose: 200.0 mg/kg/injection, schedule: Q01DX001 (ip), vehicle: Klucel (hydroxypropylcellulose) (HPC) 93 % of control | dose: 400.0 mg/kg/injection, schedule: Q01DX001 (ip), vehicle: Klucel (hydroxypropylcellulose) (HPC) 101 % of control

Cc1cccc(C)c1NC(=O)C(Cl)Cl
inactive: dose: 50.0 mg/kg/injection, schedule: Q01DX Z (ip), vehicle: methylcellulose (MC) 109 % of control | dose: 73.0 mg/kg/injection, schedule: Q01DX Z (ip), vehicle: methylcellulose (MC) 107 % of control | dose: 112.0 mg/kg/injection, schedule: Q01DX Z (ip), vehicle: methylcellulose (MC) 101 % of control | dose: 168.0 mg/kg/injection, schedule: Q01DX Z (ip), vehicle: methylcellulose (MC) 101 % of control
